Assay results published in patent US20200087258A1, “INHIBITOR OF CITRATE TRANSPORTER AND THEIR USE IN THERAPY” (Eternygen GmbH, priority 2017, published 2020).

What was measured:
Assay type in all cases: cell-based
[1] = target: T1, INDY (Homo sapiens, UniProt Q86YT5); assay: 14C-citrate uptake in HepG2 cells endogenously expressing INDY (NaCT); settings: endogenous INDY
Outline: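 HepG2 cells, which express INDY endogenously, were preincubated with compound for 5 min at 37 °C in pH 6.5 Na+ citrate uptake buffer. 14C-citrate ([…]) was then added for 90 min at 37 °C. After washing and NaOH lysis, uptake was measured by scintillation counting, with 5 mM citrate as positive control.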

[2] = target: T2, GLUT1 (Homo sapiens, UniProt P11166); assay: 3H-glucose uptake counter assay in Huh7 cells endogenously expressing GLUT1; settings: endogenous GLUT1
T2 construct: Huh-7 cells which endogenously express GLUT1; endogenous in cells; host or cells: Huh-7
T2 sequence (P11166 1-492): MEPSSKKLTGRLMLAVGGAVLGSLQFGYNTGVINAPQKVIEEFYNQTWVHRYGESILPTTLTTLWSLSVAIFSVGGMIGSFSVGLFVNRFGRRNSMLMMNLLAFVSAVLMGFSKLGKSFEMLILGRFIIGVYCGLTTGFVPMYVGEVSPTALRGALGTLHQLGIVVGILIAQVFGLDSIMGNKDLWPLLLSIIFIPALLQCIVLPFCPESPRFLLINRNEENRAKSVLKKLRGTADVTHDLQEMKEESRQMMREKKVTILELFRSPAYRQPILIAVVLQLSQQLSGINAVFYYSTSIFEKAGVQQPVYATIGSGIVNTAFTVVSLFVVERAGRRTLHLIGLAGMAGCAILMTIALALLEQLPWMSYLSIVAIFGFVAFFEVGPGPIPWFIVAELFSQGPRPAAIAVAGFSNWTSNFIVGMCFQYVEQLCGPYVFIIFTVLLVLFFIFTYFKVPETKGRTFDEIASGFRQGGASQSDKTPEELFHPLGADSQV
Protocol: (§1) The compound was obtained by screening of a library containing more than 50,000 lead-like compounds and fragments. The library was tested using a functional citrate uptake assay with HEK293 cells overexpressing recombinant human INDY. The following hit confirmation was conducted in the same assay system. To confirm the activity of selected compounds on the target INDY another cell assay was conducted. In this assay system citrate uptake was measured using HepG2 cells which endogenously express INDY. Furthermore selectivity of selected compounds was tested for two other transporters in different assay systems. The first transporter was the glutamate transporter GLT-1 tested in a glutamate uptake assays using HEK293 cells overexpressing recombinant human GLT-1. The second transporter was the glucose transporter GLUT1 tested in a glucose uptake assay using Huh-7 cells which endogenously express GLUT1. Compounds were considered to be selective with an at least 5-fold higher activity for INDY than for the other two transporters.
Cells were maintained in cell medium using cell culture grade flasks (CellSTACK Corning, 500 cm2 dishes or T175 depending on cell number). The selection antibiotic and G418 (800 μg/ml) was added during cultivation but not for seeding into assay plates. For splitting, cells were washed with PBS (w/o Ca2+, Mg2+, phenol red) and detached with Trypsin/EDTA. Throughout cultivation cells were kept sub-confluent. Detached cells (50,000 cells/well) were seeded in 96-well plates (white, clear bottom from Corning #655098) and incubated over night before usage in the assay. The following media were used. For HEK293 cells expressing INDY MEM (PAA)+10% FCS+1×P/S+2 mM L-Gln; for HEK293 cells expressing GLT-1 DMEM (Gibco)+10% FCS+400 µg/ml G418; for Huh7 cells DMEM (Gibco)+10% FCS+2 mM L-Gin (+1×P/S); for HepG2 cells MEM (PAA, Cat # E15-024)+10% FCS+2 mM L-Gin+1×NEAA+1 mM Na-Pyruvat […]
Glucose uptake in Huh7 cells was measured as a counter assay. […] After 20 min incubation at RT plates were measured using TopCount system, Perkin Elmer. […]

[3] = target: T3, GLT-1 (Homo sapiens, UniProt P43004); assay: 3H-glutamate uptake counter assay in HEK293 cells overexpressing human GLT-1
T3 construct: host or cells: HEK293 (virus made in GP293 packaging cells)
T3 sequence (P43004 whole entry): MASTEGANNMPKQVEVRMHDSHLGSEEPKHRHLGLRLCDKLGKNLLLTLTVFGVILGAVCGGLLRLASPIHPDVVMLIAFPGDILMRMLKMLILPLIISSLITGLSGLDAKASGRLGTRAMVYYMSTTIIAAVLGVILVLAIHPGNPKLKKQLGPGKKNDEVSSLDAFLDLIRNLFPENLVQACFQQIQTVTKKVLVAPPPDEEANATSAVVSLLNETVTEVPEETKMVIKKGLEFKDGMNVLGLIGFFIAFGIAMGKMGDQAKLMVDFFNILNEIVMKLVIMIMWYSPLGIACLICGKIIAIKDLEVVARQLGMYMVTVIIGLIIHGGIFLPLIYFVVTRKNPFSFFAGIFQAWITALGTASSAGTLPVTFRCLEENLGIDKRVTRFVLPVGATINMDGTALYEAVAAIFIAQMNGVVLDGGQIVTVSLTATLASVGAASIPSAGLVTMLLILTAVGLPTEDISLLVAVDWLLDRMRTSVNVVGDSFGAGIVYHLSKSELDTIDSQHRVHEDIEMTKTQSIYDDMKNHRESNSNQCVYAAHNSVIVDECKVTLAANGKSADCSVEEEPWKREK
Protocol: as §1
Cells were maintained in cell medium using cell culture grade flasks (CellSTACK Corning, 500 cm2 dishes or T175 depending on cell number). The selection antibiotic and G418 (800 μg/ml) was added during cultivation but not for seeding into assay plates. For splitting, cells were washed with PBS (w/o Ca2+, Mg2+, phenol red) and detached with Trypsin/EDTA. Throughout cultivation cells were kept sub-confluent. Detached cells (50,000 cells/well) were seeded in 96-well plates (white, clear bottom from Corning #655098) and incubated over night before usage in the assay. The following media were used. For HEK293 cells expressing INDY MEM (PAA)+10% FCS+1×P/S+2 mM L-Gln; for HEK293 cells expressing GLT-1 DMEM (Gibco)+10% FCS+400 µg/ml G418; for Huh7 cells DMEM (Gibco)+10% FCS+2 mM L-Gin (+1×P/S); for HepG2 cells MEM (PAA, Cat # E15-024)+10% FCS+2 mM L-Gin+1×NEAA+1 mM Na-Pyruvat
The following assay buffers for the particular uptake reaction were used. Citrate uptake buffer: 120 mM NaCl, 5.4 mM KCl, 0.8 mM MgSO4, 5 mM glucose, 1.8 mM CaCl2, 25 mM Hepes, 25 mM MES, pH 6.5. Glutamate uptake buffer: HBSS, 1 mM CaCl2, 1 mM MgCl2, 20 mM Hepes pH 7.4. Glucose uptake buffer: 25 mM Hepes+25 mM MES pH 7.4, 120 mM NaCl, 5.4 mM KCl, 1.8 mM CaCl2, 0.8 mM MgSO4.
As a counter assay, Glutamate uptake by the GLT-1 transporter was used. The principle of the assay is to measure the uptake of ^3H labelled glutamate into HEK cells, which overexpress human GLT-1.
The generation of a GLT-1 cell line was performed as follows: human GLT11 isoform sv1 cDNA (Origene # RC223924) was cloned into vector pFB-Neo-CMV-hGLT1 using QIAfilter Plasmid Midi Kit (Qiagen). Virus was generated in GP293 packaging cells (transfection of plasmid with Lipofectamine 2000+OptiMEM). For transfection into HEK cells GP293, supernatant containing virus was passed through a 0.45 micron sterile filter and DEAE-dextran was added at […] final concentration. The solution was used to transfect HEK293 cells at 37° C., 8.5% CO2. After 24 h selection marker G418 at 400 μg/ml was added and cultivation medium performed in DMEM 10% FBS.
The assay was performed in a 96-well format using repeated washing steps, cell lysis and addition of scintillation fluid. Assay buffer was HBSS, 1 mM CaCl2, 1 mM MgCl2, […] pH 7.4. Cells were seeded into white clear-bottom 96-well plates (50,000/well) in the presence of Poly-D-Lysine and incubated at 37° C. for 16-24 hours. Subsequently the plates were washed once with assay buffer using automated washing/LS 405 Selectors, BioTek ending with a buffer volume of 40 μl. Then 5 μl of compound solution in assay buffer was added and incubated for 20 min at 37° C. in cell incubator, HERA cell Heraeus. Afterwards 10 μl of substrate 3H-Glu (3 nM) were added and incubated for another 20 min at 37° C. in cell incubator, HERAcell. Then the plates were washed once with 200 μl cold assay buffer and 150 μl scintillation fluid was added. […]

[4] = target: T1, INDY; assay: 14C-citrate uptake in HEK293 cells overexpressing recombinant human INDY (NaCT); design: expressed in transfected cells; host or cells: HEK293
Outline: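 HEK293 cells overexpressing human NaCT, 50,000/well, preincubated 5-30 min at 37 °C with compound in pH 6.5 Na+ buffer. 14C-citrate ([…]) uptake then ran 20-90 min at 37 °C, followed by ice-cold washes, NaOH lysis and scintillation counting. 10 mM citrate served as positive control.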

T1 sequence (Q86YT5 whole entry): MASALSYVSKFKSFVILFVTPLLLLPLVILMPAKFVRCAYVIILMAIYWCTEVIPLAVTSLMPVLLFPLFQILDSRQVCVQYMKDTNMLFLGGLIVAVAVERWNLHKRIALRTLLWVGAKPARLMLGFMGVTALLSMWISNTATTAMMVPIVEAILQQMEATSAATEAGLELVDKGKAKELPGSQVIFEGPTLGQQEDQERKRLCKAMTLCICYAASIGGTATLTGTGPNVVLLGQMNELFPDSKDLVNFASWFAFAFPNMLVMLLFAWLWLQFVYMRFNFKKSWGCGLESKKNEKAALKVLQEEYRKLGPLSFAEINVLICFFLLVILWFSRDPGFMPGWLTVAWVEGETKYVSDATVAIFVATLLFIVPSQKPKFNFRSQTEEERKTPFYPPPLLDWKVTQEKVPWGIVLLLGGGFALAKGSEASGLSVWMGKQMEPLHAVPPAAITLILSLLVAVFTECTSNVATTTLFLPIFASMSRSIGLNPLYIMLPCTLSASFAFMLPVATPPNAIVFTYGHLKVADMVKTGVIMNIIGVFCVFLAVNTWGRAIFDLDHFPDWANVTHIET

`O=C(NCc1ccccc1F)C1CN(S(=O)(=O)/C=C/c2ccccc2)C1` [Example 1, N-[(2-fluorophenyl)methyl]-1-[(E)-phenylethenesulfonyl]azetidine-3-carboxamide] gave an IC50 [1] of 5400 nM and an IC50 [2] greater than 50000 nM.
Molecule `O=C(NCc1ccccc1F)C1CCN(S(=O)(=O)c2ccc(OC(F)(F)F)cc2)CC1` [Example 29, N-[(2-fluorophenyl)methyl]-1-[4-(trifluoromethoxy)benzenesulfonyl]piperidine-4-carboxamide] has an IC50 [1] of 400 nM, an IC50 [3] greater than 20000 nM and an IC50 [4] of 500 nM.
Molecule `CC(C)(C)c1ccc(S(=O)(=O)N2CCC(C(=O)NCc3ccccn3)CC2)cc1` [Example 37, 1-(4-tert-butylbenzenesulfonyl)-N-[(pyridin-2-yl)methyl]piperidine-4-carboxamide] has an IC50 [1] of 1100 nM, an IC50 [3] greater than 20000 nM and an IC50 [4] of 800 nM.
Work on `CC(C)(C)c1ccc(S(=O)(=O)N2CC(C(=O)NCc3ccccc3Cl)C2)cc1` [Example 49, 1-(4-tert-butylbenzenesulfonyl)-N-[(2-chlorophenyl)methyl]azetidine-3-carboxamide] yielded an IC50 [1] of 9000 nM, an IC50 [3] greater than 20000 nM and an IC50 [4] of 6400 nM.
`Cc1cc(C)cc(S(=O)(=O)N2CCC(C(=O)NCc3ccccn3)CC2)c1` [Example 60, 1-(3,5-dimethylbenzenesulfonyl)-N-[(pyridin-2-yl)methyl]piperidine-4-carboxamide] gave an IC50 [1] of 700 nM, an IC50 [3] greater than 20000 nM and an IC50 [4] of 1300 nM.
For `O=C(NCc1ccccn1)C1CCN(S(=O)(=O)c2ccc(Cl)cc2Cl)CC1` [Example 73, 1-(2,4-dichlorobenzenesulfonyl)-N-[(pyridin-2-yl)methyl]pipendine-4-carboxamide], the IC50 [1] was 1600 nM, the IC50 [3] was greater than 20000 nM and the IC50 [4] was 2400 nM.
For `O=C(NCc1ccccc1O)C1CCN(S(=O)(=O)c2cc(Cl)cc(Cl)c2)CC1` [Example 79, 1-(3,5-dichlorobenzenesulfonyl)-N-[(2-hydroxyphenyl)methyl]pipendine-4-carboxamide], the IC50 [1] was 100 nM, the IC50 [3] was greater than 20000 nM and the IC50 [4] was 200 nM.
`Nc1ccccc1CNC(=O)C1CCN(S(=O)(=O)c2cc(Cl)cc(Cl)c2)CC1` [Example 81, N-[(2-aminophenyl)methyl]-1-(3,5-dichlorobenzenesulfonyl)pipendine-4-carboxamide] gave an IC50 [1] of 100 nM, an IC50 [3] greater than 20000 nM and an IC50 [4] of 400 nM.
With `O=C(NCc1ccccc1O)C1CCN(S(=O)(=O)c2ccc(C(F)(F)F)cc2)CC1` [Example 82, N-[(2-hydroxyphenyl)methyl]-1-[4-(trifluoromethyl)benzenesulfonyl]pipendine-4-carboxamide] the IC50 [1] was 600 nM, the IC50 [3] was greater than 20000 nM and the IC50 [4] was 1100 nM.
With `[N-]=[N+]=NCc1ccccc1CNC(=O)C1CCN(S(=O)(=O)c2cc(Cl)cc(Cl)c2)CC1` [Example 92, N-([2-(azidomethyl)phenyl]methyl)-1-(3,5-dichlorobenzenesulfonyl)piperidine-4-carboxamide] the IC50 [1] was 800 nM, the IC50 [3] was greater than 20000 nM and the IC50 [4] was 1000 nM.
`O=C(NCc1ccccn1)C1CCN(S(=O)(=O)c2cc(Cl)cc(Br)c2)CC1` [Example 96, 1-(3-bromo-5-chlorobenzenesulfonyl)-N-[(pyridin-2-yl)methyl]piperidine-4-carboxamide] gave an IC50 [1] of 300 nM, an IC50 [3] greater than 20000 nM and an IC50 [4] of 400 nM.
`O=C(NCc1ccccc1)C1CCN(S(=O)(=O)c2cc(Cl)cc(Cl)c2)CC1` [Example 103, N-benzyl-1-(3,5-dichlorobenzenesulfonyl)piperidine-4-carboxamide] showed an IC50 [1] of 100 nM, an IC50 [3] greater than 20000 nM and an IC50 [4] of 100 nM.
Molecule `CC(C)c1ccc(S(=O)(=O)N2CCC(C(=O)NCc3ccccn3)CC2)cc1` [Example 111, 1-[4-(propan-2-yl)benzenesulfonyl]-N-[(pyridin-2-yl)methyl]piperidine-4-carboxamide] has an IC50 [1] of 5200 nM, an IC50 [3] greater than 20000 nM and an IC50 [4] of 2700 nM.
With `CC(F)c1cccc(S(=O)(=O)N2CCC(C(=O)NCc3ccccc3F)CC2)c1` (stereo not drawn) [Example 112, 1-[3-(1-fluoroethyl)benzenesulfonyl]-N-[(2-fluorophenyl)methyl]piperidine-4-carboxamide] the IC50 [1] was 900 nM, the IC50 [3] was greater than 20000 nM and the IC50 [4] was 1400 nM.
For `O=C(NCc1ccccn1)C1CCN(S(=O)(=O)c2ccc(C3CCCCC3)cc2)CC1` [Example 131, 1-(4-cyclohexylbenzenesulfonyl)-N-[(pyridin-2-yl)methyl]piperidine-4-carboxamide], the IC50 [1] was 4700 nM and the IC50 [4] was 6100 nM.
Work on `O=C(NCc1ccc(F)cc1)C1CCN(S(=O)(=O)c2cc(Cl)cc(Cl)c2)CC1` [Example 132, 1-(3,5-dichlorobenzenesulfonyl)-N-[(4-fluorophenyl)methyl]piperidine-4-carboxamide] yielded an IC50 [1] of 700 nM and an IC50 [4] of 2000 nM.
